pKi: −log10 of the molar value.
target: T1, cloned human dopamine D3 receptors (Homo sapiens, UniProt P35462); test: [N-Methyl-3H]Spiroperidol binding to cloned human dopamine D3 receptors; details: read-out: D3 Ki
T1 construct: expressed in transfected cells; membrane homogenate
Text: [N-Methyl-^3H]Spiroperidol Binding to Cloned Human Dopamine D3 Receptors
This assay measures the in vitro activity of compounds on cloned human dopamine (D3) receptors and predicts the direct dopamine-blocking properties of putative neuropsychiatric agents at human dopamine D3 receptors.
The D3 gene was isolated from a human striatal cDNA library (Stratagene). The gene was sequenced and sub-cloned into the expression vector RC/RSV (Invitrogen). CHO (Chinese Hamster Ovary) cells were stably transfected with 10 μg of the D3/RSV plasmid using the DOTAP method from Boehringer Mannheim and 72 clones that were G418 resistant were isolated. Using mRNA and binding displacement data a single high expressing clone was identified. This clone was then grown in large batches for the purpose of developing a 96 well format assay.
• 1. One plate (10 cm) with approximately 2-3 million D3 cells per plate is incubated with 1 ml of Trypsin-EDTA at room temperature for ˜2 min or until cells have lifted off plates. Four ml of Ham's F12+10% Fetal Bovine Serum+1% Penicillin/Streptomycin+G418 (400 μg/ml) medium are added to resuspend cells and 1 ml of this is added to each large plate (15 cm) containing 19 ml of the same medium as mentioned above. • 2. The 5 large plates are incubated at 37° C.+5% CO2 for ˜3 days or until the cells are confluent. • 3. After these plates are confluent, they are split into 10 large plates. Medium is aspirated off, 2 ml of Trypsin-EDTA are added to each plate and plates are incubated at RT for 2 min or until cells have lifted off the plate. Eight ml of the F12 medium (same medium as #1 above) are added to each plate (10 ml total) to resuspend the cells and 5 ml are transferred to the 2 new plates containing 15 ml of the F12 media. • 4. The 10 large plates are incubated at 37° C.+5% CO2 for ˜2 days or until the cells are confluent. • 5. The 10 large plates are split into 60 large plates (using Trypsin-EDTA as #3 except 4 ml of F12 medium are added to resuspend cells and 1 ml is aliquoted to 6 new plates containing 19 ml of F12 medium each). • 6. Plates are incubated at 37° C.+5% CO2 for ˜3 days or until cell are confluent. • 7. The 60 large plates are then split into 60 roller bottles (100-150 million cells/bottle). Medium is aspirated off, 2 ml of Trypsin-EDTA are added to each plate and incubated at RT for ˜2 minutes or until cells have lifted off plates. Eight ml of F12 medium are added to each plate to resuspend cells and the entire 10 ml are added to 1 roller bottle containing 90 ml of the F12 medium. • 8. The 60 roller bottles are immediately placed on their sides and transferred to the roller bottle incubator. They are incubated at 37° C.+5% CO2 for ˜3-5 days. Cells are spun at 30-40% motor speed in the Form a incubator. • 9. Medium is poured off and cells are washed 2× in PBS. • 10. Cells are then scraped off in 20 ml of PBS and the bottles are rinsed again with 5 ml of PBS to remove any remaining cells. Cells are stored on ice before membrane preparation. • 11. The yield for 60 D3 roller bottles has varied from ˜260-500 mg. • Note: All tissue culture reagents are from Gibco-BRL. C. Membrane Preparation
The cells are harvested into 250 ml centrifuge tubes with 100 volumes of cold phosphate buffered saline (PBS) and spun down (1200×G for 10 min at 4° C.). The medium is removed and 100 ml PBS are added to each centrifuge tube, cells are resuspened and spun down again. The PBS is removed and the final pellet is homogenized in an appropriate volume of 10% DMSO with a polytron on ice at a medium setting.
A 200 μl sample membrane homogenate is added to 200 μl of 1% SDS, vortexed and allowed to stand for 5 min. Aliquots (25, 50 and 100 μl) of this mixture are assayed in duplicate following the standard Bio-Rad DC protein assay protocol (kit catalog number 500-0112) and using reagent S. Absorbance readings are made at 750 nm (note: the most accurate protein OD readings are between 0.1-0.5 units). […]

T1 sequence (P35462 whole entry): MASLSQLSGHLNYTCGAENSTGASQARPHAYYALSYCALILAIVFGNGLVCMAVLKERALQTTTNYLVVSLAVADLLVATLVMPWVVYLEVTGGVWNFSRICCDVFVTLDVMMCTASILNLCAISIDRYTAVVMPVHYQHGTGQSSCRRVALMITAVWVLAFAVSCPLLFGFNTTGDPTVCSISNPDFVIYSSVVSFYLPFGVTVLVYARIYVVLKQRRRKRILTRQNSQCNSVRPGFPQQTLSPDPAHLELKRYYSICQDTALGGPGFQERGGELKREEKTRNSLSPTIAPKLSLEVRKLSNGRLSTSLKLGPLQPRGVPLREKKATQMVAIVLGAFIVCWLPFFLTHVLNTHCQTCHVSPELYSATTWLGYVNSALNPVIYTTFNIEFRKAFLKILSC

Row | Compound | pKi
1 | O=C([C@@H]1C[C@H]1CN1CCC(c2noc3ccc(C(F)(F)F)cc23)CC1)N1CCCC(Cn2ccnc2)C1 (mixture of isomers) [A002200835] | 9.40
2 | O=C([C@@H]1C[C@H]1CN1CCC(c2csc3cc(C(F)(F)F)ccc23)CC1)N1CCCC(Cn2ccnc2)C1 (mixture of isomers) [A002287512] | 9.19
3 | O=C([C@@H]1C[C@H]1CN1CCC(c2nsc3cc(Br)ccc23)CC1)N1CCCC(Cn2ccnc2)C1 (mixture of isomers) [A002329099] | 8.69
4 | O=C([C@@H]1C[C@H]1CN1CCN(c2csc3cc(C(F)(F)F)ccc23)CC1)N1CCCC(CN2CCCCC2)C1 (mixture of isomers) [A002437357] | 7.85
5 | O=C([C@@H]1C[C@H]1CN1CCN(c2csc3cc(C(F)(F)F)ccc23)CC1)N1CCCC(CN2CCCNCC2)C1 (mixture of isomers) [A002437358] | 8.05
6 | CC1CCCCN1C(=O)[C@@H]1C[C@H]1CN1CCC(c2noc3ccsc23)CC1 (mixture of isomers) [compound 829462] | 8.02
7 | CN1CCCC1CCNC(=O)[C@@H]1C[C@H]1CN1CCN(c2csc3cc(C(F)(F)F)ccc23)CC1 (mixture of isomers) [compound 831884] | 8.71
8 | O=C([C@@H]1C[C@H]1CN1CCN(c2csc3cc(C(F)(F)F)ccc23)CC1)N1CCCC(Cn2ccnc2)C1 (mixture of isomers) [compound 832268] | 8.58
9 | O=C([C@@H]1C[C@H]1CN1CCC(c2noc3ccsc23)CC1)N1CCCC(Cn2ccnc2)C1 (mixture of isomers) [compound 832269] | 8.29
10 | CC(C)(C)OC(=O)N1CCCCC1CCNC(=O)[C@@H]1C[C@H]1CN1CCN(c2csc3cc(C(F)(F)F)ccc23)CC1 (mixture of isomers) [compound 832500] | 6.79
11 | CC(C)(C)OC(=O)N1CCCC(CNC(=O)[C@@H]2C[C@H]2CN2CCN(c3csc4cc(C(F)(F)F)ccc34)CC2)C1 (mixture of isomers) [compound 832501] | 7.38
12 | O=C(NCCC1CCCCN1)[C@@H]1C[C@H]1CN1CCN(c2csc3cc(C(F)(F)F)ccc23)CC1 (mixture of isomers) [compound 832503] | 7.95
13 | O=C(NCC1CCCNC1)[C@@H]1C[C@H]1CN1CCN(c2csc3cc(C(F)(F)F)ccc23)CC1 (mixture of isomers) [compound 832504] | 8.24
14 | CC(C)(C)OC(=O)N1CCCCC1CCNC(=O)[C@@H]1C[C@H]1CN1CCC(c2noc3ccsc23)CC1 (mixture of isomers) [compound 832533] | 8.39
15 | CC1CCCCN1CCCNC(=O)[C@@H]1C[C@H]1CN1CCN(c2csc3cc(C(F)(F)F)ccc23)CC1 (mixture of isomers) [compound 832578] | 7.59
16 | CC(=O)N1CCCCC1CCNC(=O)[C@@H]1C[C@H]1CN1CCN(c2csc3cc(C(F)(F)F)ccc23)CC1 (mixture of isomers) [compound 833064] | 7.54
17 | COc1cccc2c(C3CCN(C[C@@H]4C[C@H]4C(=O)N4CCCC(Cn5ccnc5)C4)CC3)noc12 (mixture of isomers) [compound 833910] | 8.96
18 | O=C([C@@H]1C[C@H]1CN1CCC(c2noc3c(C(F)(F)F)cccc23)CC1)N1CCCC(Cn2ccnc2)C1 (mixture of isomers) [compound 833911] | 8.90
19 | COc1ccc2c(c1)c(N1CCN(C[C@@H]3C[C@H]3C(=O)N3CCCC(Cn4ccnc4)C3)CC1)nn2C (mixture of isomers) [compound 834173] | 8.29
20 | CC1CCC(N2CC(CN3CCN(c4csc5cc(C(F)(F)F)ccc45)CC3)CC2=O)CC1 (racemic) [833953A] | 7.05
21 | CCCc1cc(N2CCN(CC3CC3C(=O)NC3CCC(CC)CC3)CC2)nc(C(C)(C)C)n1 (racemic) [compound 817274] | 8.35
22 | CCCc1cc(N2CCN(CC3CC3C(=O)NC3CCC(C)CC3)CC2)nc(C(C)(C)C)n1 (racemic) [compound 817275] | 8.48
23 | COc1ccc(N2CCN(CC3CC3C(=O)NC3CCC(C)CC3)C(C)C2)cc1 (racemic) [compound 827192] | 6.82
24 | CC1CCC(NC(=O)C2CC2CN2CCC(n3c(=O)[nH]c4ccccc43)CC2)CC1 (racemic) [compound 827211] | 6.45
25 | CCC1CCC(NC(=O)C2CC2CN2CCN(C(=O)OC(C)(C)C)CC2)CC1 (racemic) [compound 827223] | 6.80
26 | CCC1CCC(NC(=O)C2CC2CN2CCN(c3ccc(OC)cc3)CC2C)CC1 (racemic) [compound 827231] | 7.22
27 | CCC1CCC(NC(=O)C2CC2CN2CCC(Cc3ccccc3)CC2)CC1 (racemic) [compound 827248] | 7.71
28 | CCC1CCC(NC(=O)C2CC2CN2CCC(n3c(=O)[nH]c4ccccc43)CC2)CC1 (racemic) [compound 827250] | 7.34

The remaining lines, values ahead:

Row | pKi | Compound
29 | 8.39 | O=C(NC1CCN(C(=O)Nc2ccc(Cl)cc2)CC1)C1CC1CN1CCC(c2noc3ccsc23)CC1 (racemic) [832575ES]
30 | 7.76 | O=C(NC1CCN(C(=O)Nc2ccc(F)cc2)CC1)C1CC1CN1CCC(c2noc3ccsc23)CC1 (racemic) [832576ES]
31 | 6.75 | CC1CCC(NC(=O)C2CC2CN2CCN(Cc3ccccc3)CC2)CC1 (racemic) [compound 827202]
32 | 7.52 | CC1CCC(NC(=O)C2CC2CN2CCC(Cc3ccccc3)CC2)CC1 (racemic) [compound 827209]
33 | 6.82 | CCC1CCC(NC(=O)C2CC2CN2CCN(CCc3ccccc3)CC2)CC1 (racemic) [compound 827237]
34 | 6.82 | CCC1CCC(NC(=O)C2CC2CN2CCN(Cc3ccc4c(c3)OCO4)CC2)CC1 (racemic) [compound 827240]
35 | 7.05 | CCC1CCC(NC(=O)C2CC2CN2CCN(Cc3ccccc3)CC2)CC1 (racemic) [compound 827241]
36 | 6.41 | O=C(NCc1ccco1)C1CC1CN1CCC(c2noc3ccsc23)CC1 (racemic) [compound 827393]
37 | 6.41 | O=C(C1CC1CN1CCC(c2noc3ccsc23)CC1)N1CCN(c2ncccn2)CC1 (racemic) [compound 827394]
38 | 7.50 | O=C(NC1CC2CCC1C2)C1CC1CN1CCC(c2noc3ccsc23)CC1 (racemic) [compound 827395]
39 | 6.95 | O=C(Nc1ccccn1)C1CC1CN1CCC(c2noc3ccsc23)CC1 (racemic) [compound 827397]
40 | 7.19 | CCC1CCC(NC(=O)C2CC2CN2CCC(c3noc4cc(Cl)ccc34)CC2)CC1 (racemic) [compound 829363]
41 | 8.32 | Cc1cc(NC(=O)C2CC2CN2CCC(c3noc4ccsc34)CC2)sn1 (racemic) [compound 829463]
42 | 6.96 | CN1CCN(C(=O)C2CC2CN2CCC(c3noc4ccsc34)CC2)CC1 (racemic) [compound 829590]
43 | 7.14 | O=C(C1CC1CN1CCC(c2noc3ccsc23)CC1)N1CCN(C2CCCCC2)CC1 (racemic) [compound 829591]
44 | 7.37 | O=C(NC1CCCC1)C1CC1CN1CCC(c2noc3ccsc23)CC1 (racemic) [compound 829592]
45 | 6.44 | O=C(C1CC1CN1CCC(c2noc3ccsc23)CC1)N1CC=CC1 (racemic) [compound 829594]
46 | 6.70 | O=C(C1CC1CN1CCC(c2noc3ccsc23)CC1)N1CCC(Oc2ccc(F)cc2)CC1 (racemic) [compound 829595]
47 | 6.65 | CN1CCCN(C(=O)C2CC2CN2CCC(c3noc4ccsc34)CC2)CC1 (racemic) [compound 829597]
48 | 7.19 | CC1CCC(NC(=O)C2CCC2CN2CCC(c3noc4ccsc34)CC2)CC1 (racemic) [compound 829830]

Reference: patent US7772252B2, “Heterocyclic substituted carbonyl derivatives and their use as dopamine D3 receptor ligands” (Aventis Pharmaceuticals Inc., priority 2001, dated 2010)
